Measurements published in paper PMC7125926 (Antiviral Research, 2015).
Where “and” joins values, the source holds several entries; their conditions need not be identical. Identical values can stand only once. Entries after “also recorded” stand apart in the source; their conditions may differ. Counter-ions that a name gives are not always drawn. Like-named read-outs stand apart in the source and are kept apart here.

Key:
influenza virus [1] = details: mouse, cited from earlier work
IP-10 = assay: tissue or blood; type: cell-based, mouse
[2] = test system: PR8 (H1N1) influenza virus; type: cell-based
influenza A virus = details: ref An et al., 2014; cited from earlier work
influenza virus [3] = type: in vivo, mice; details: Fig. S5
[4] = MTT assay of drug toxicity in mouse lung slices; type: cell-based
[5] = read-out: IP-10-EC50: 50% effective concentration determined by ELISA of IP-10
[6] = read-out: NA-EC50: 50% effective concentration determined by NA activity assay
[7] = Mus musculus, 48 h, read-out: IP-10-EC50: 50% effective concentration determined by ELISA of IP-10

| Structure (SMILES) | In vivo: the protection effect of mice from lethal influenza infection (influenza virus [1]) | effect on IP-10 levels in lung slices (in words) (IP-10) | EC50 (IP-10; [5]) [µM] | effect on virus replication / NA activity in lung slices (in words) [2] | antiviral activity in MDCK cells (in words) (influenza A virus) | protection of mice from lethal doses of influenza virus infection (in words) (influenza virus [3]) | CC50 at 48 h [4] [µM] | other results |
| --- | --- | --- | --- | --- | --- | --- | --- | --- |
| CCCCC/C=C/C=C1/C(=O)C=C[C@@H]1C/C=C\CCCC(=O)O [15d-PGJ2, 15-deoxy-Δ^12,14-prostaglandin J2] | + | dose dependently decreased IP-10 levels | 0.2 | neither inhibited virus replication | – | – | – | inhibition of virus replication (influenza virus [1]; in vivo): does not inhibit virus replication; mice protected from death against lethal influenza infection (influenza virus [1]; in vivo): 79% |
| CN(C)CCCOc1nn(Cc2ccccc2)c2ccccc12 [Benzydamine] | – | inhibited neither | – | inhibited neither | known antiviral activity | failed to protect mice | 113 | – |
| Clc1ccccc1C(c1ccccc1)(c1ccccc1)n1ccnc1 [Clotrimazole] | – | inhibited neither | – | inhibited neither | known antiviral activity | failed to protect mice | 16.3 | – |
| CCN(CC)CCOC(=O)C1(C2CCCCC2)CCCCC1 [Dicyclomine] | – | inhibited neither | – | – | – | – | – | – |
| O=C(O[C@@H]1Cc2c(O)cc(O)cc2O[C@@H]1c1cc(O)c(O)c(O)c1)c1cc(O)c(O)c(O)c1 [EGCG] | + | dose dependently decrease | 3.3 | dose dependently decrease NA levels | – | – | – | EC50 [2, 6]: 50.1 µM |
| CC(C)OC(=O)C(C)(C)Oc1ccc(C(=O)c2ccc(Cl)cc2)cc1 [Fenofibrate] | – | inhibited neither | – | inhibited neither | known antiviral activity | failed to protect mice | > 200 | – |
| CC(C)=C1C/C=C(\C)CC/C=C(\C)CC1=O [Gemacrone] | + | – | 17.6 | efficiently inhibited virus replication | – | – | – | EC50 [2, 6]: 23.1 µM |
| CCN(CC)CCOC(=O)C(Cc1cccc2ccccc12)CC1CCCO1 (centres unmarked) [Nafronyl oxalate] | – | inhibited the inflammatory response | – | not showing any antiviral activity | known antiviral activity | – | 122 | EC50 (IP-10; [7]): 22.1 µM |
| CCCC(C(=O)OCCN(CC)CC)(c1ccccc1)c1ccccc1 [Proadifen] | – | inhibited neither | – | inhibited neither | known antiviral activity | failed to protect mice | 32.2 | – |
| NC(=O)c1ncn([C@@H]2O[C@H](CO)[C@@H](O)[C@H]2O)n1 [Ribavirin, ribavirin] | – | – | – | dose dependent inhibition; also recorded: efficiently inhibited virus replication | – | – | > 200 | EC50 (IP-10; [7]): 21.8 µM; EC50 (IP-10; Mus musculus, 48 h, read-out: IP-10-EC50: 50% effective concentration determined by IP-10 inhibition): 21.8 µM; EC50 (IP-10; read-out: IP-10-EC50: 50% effective concentration determined by IP-10 inhibition): 17.8 µM and 20.6 µM and 14.2 µM; EC50 ([2]; read-out: NA-EC50: 50% effective concentration determined by NA inhibition): 25.4 µM and 28.3 µM and 17.7 µM |
| C[S+]([O-])c1ccc(-c2nc(-c3ccncc3)c(-c3ccc(F)cc3)[nH]2)cc1 (centres unmarked) [SB203580] | + | dose dependently decreased IP-10 levels | – | neither inhibited virus replication | – | – | > 100 | – |
| N#CC(=C(/N)Sc1ccccc1N)/C(C#N)=C(/N)Sc1ccccc1N [U0126] | + | dose dependently decrease | 1.3 | dose dependent inhibition; also recorded: dose dependently decrease NA levels | – | – | – | EC50 [2, 6]: 12 µM |
